Measured values reported in the supplement of paper PMC11208160.

Test: recombinant UMI read abundance after kanamycin selection (control-corrected) (log10(CPM+1)); higher = more efficient recombination; extreme values may be limits of the assay; sequences stand for … in AGTGCAGAGAAAATCGGCCAGTTTTCTCTGCCTGCAGTCCGCATGCCGTGGGACCCCTTGGGTTCTAACCTGTTGCCTAGATTTATGCAGCGGACTGCCTTTCTCCCAAAGTGATAAACCGG…AGGTTGGTTTCACT; site = the 11-nt donor
Outline: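 In Escherichia coli, a pool of donor and donor-binding-loop pairs, each with a 12-nt UMI, was tested for the IS621 bridge recombinase. Plating was on IPTG (0.07 mM) plus kanamycin, or without selection, in two replicates. Recombinant UMIs were amplified by PCR across the donor–target junction and sequenced, and counts were reported as log10(CPM+1) after averaging and control-derived scaling.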
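Further: IS621 bridge recombinase in Escherichia coli cells against a fixed T5 target plasmid.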

Sequence	recombinant UMI read abundance (log10)
GCTTGCCCATGGACCGGTTTTCCCGGTAATCCGTATTTGAT (site ACTTGCCCTAT)	0
GCTTGCCCATGGACCGGTTTTCCCGGTAATCCGTATTTGAT (site CCTTGCCCTAT)	0.0733
GCTTGCCCATGGACCGGTTTTCCCGGTAATCCGTATTTGAT (site GATTGCCCTAT)	0.0145
GCTTGCCCATGGACCGGTTTTCCCGGTAATCCGTATTTGAT (site GCATGCCCTAT)	0.0036
GCTTGCCCATGGACCGGTTTTCCCGGTAATCCGTATTTGAT (site GCCTGCCCTAT)	0.0885
GCTTGCCCATGGACCGGTTTTCCCGGTAATCCGTATTTGAT (site GCGTGCCCTAT)	0.0338
GCTTGCCCATGGACCGGTTTTCCCGGTAATCCGTATTTGAT (site GCTAGCCCTAT)	0.00265
GCTTGCCCATGGACCGGTTTTCCCGGTAATCCGTATTTGAT (site GCTCGCCCTAT)	0.249
GCTTGCCCATGGACCGGTTTTCCCGGTAATCCGTATTTGAT (site GCTGGCCCTAT)	0.00346
GCTTGCCCATGGACCGGTTTTCCCGGTAATCCGTATTTGAT (site GCTTACCCTAT)	0.00934
GCTTGCCCATGGACCGGTTTTCCCGGTAATCCGTATTTGAT (site GCTTCCCCTAT)	0.0974
GCTTGCCCATGGACCGGTTTTCCCGGTAATCCGTATTTGAT (site GCTTGACCTAT)	0.0101
GCTTGCCCATGGACCGGTTTTCCCGGTAATCCGTATTTGAT (site GCTTGCACTAT)	0.00776
GCTTGCCCATGGACCGGTTTTCCCGGTAATCCGTATTTGAT (site GCTTGCCCTAA)	0.00772
GCTTGCCCATGGACCGGTTTTCCCGGTAATCCGTATTTGAT (site GCTTGCCCTAC)	0.00771
GCTTGCCCATGGACCGGTTTTCCCGGTAATCCGTATTTGAT (site GCTTGCCCTAG)	0

Sequence	recombinant UMI read abundance (log10)
GCTTGCCCATGGACCGGTTTTCCCGGTAATCCGTATTTGAT (site GCTTGCCCTAT)	0.0141
GCTTGCCCATGGACCGGTTTTCCCGGTAATCCGTATTTGAT (site GCTTGCCCTCT)	0.0236
GCTTGCCCATGGACCGGTTTTCCCGGTAATCCGTATTTGAT (site GCTTGCCCTGT)	0
GCTTGCCCATGGACCGGTTTTCCCGGTAATCCGTATTTGAT (site GCTTGCCCTTT)	0.0171
GCTTGCCCATGGACCGGTTTTCCCGGTAATCCGTATTTGAT (site GCTTGCGCTAT)	0.0038
GCTTGCCCATGGACCGGTTTTCCCGGTAATCCGTATTTGAT (site GCTTGCTCTAT)	0.571
GCTTGCCCATGGACCGGTTTTCCCGGTAATCCGTATTTGAT (site GCTTGGCCTAT)	0.0246
GCTTGCCCATGGACCGGTTTTCCCGGTAATCCGTATTTGAT (site GCTTGTCCTAT)	0.00271
GCTTGCCCATGGACCGGTTTTCCCGGTAATCCGTATTTGAT (site GCTTTCCCTAT)	0
GCTTGCCCATGGACCGGTTTTCCCGGTAATCCGTATTTGAT (site GGTTGCCCTAT)	0.0122
GCTTGCCCATGGACCGGTTTTCCCGGTAATCCGTATTTGAT (site GTTTGCCCTAT)	0.00461
GCTTGCCCATGGACCGGTTTTCCCGGTAATCCGTATTTGAT (site TCTTGCCCTAT)	0.0164
GCTTGCGCATGGACCGGTTTTCCCGGTAATCCGTATTTGAT (site GCTTGCACTAT)	0.734
GCTTGCGCATGGACCGGTTTTCCCGGTAATCCGTATTTGAT (site GCTTGCCCTAT)	0.00863
GCTTGCGCATGGACCGGTTTTCCCGGTAATCCGTATTTGAT (site GCTTGCGCTAT)	1.72
GCTTGCGCATGGACCGGTTTTCCCGGTAATCCGTATTTGAT (site GCTTGCTCTAT)	0
